Experimental findings from patent publication US20250346600A1, “TRICYCLIC DERIVATIVES AND RELATED USES” (MOMA Therapeutics, Inc., priority 2023, published 2025) are described below.

Test [1] addresses T1, Full length WRN protein (aa 2-1432) (Homo sapiens (Human), UniProt Q14191). As to the kind of experiment: WRN ATPase ADP-Glo biochemical assay, Assay Format B (100 μM ATP). The note with it: 0.25 nM WRN, 100 nM C6.18 ssDNA, 60 min preincubation, read-out: ATPase ADPGlo AC50 (uM)- Assay Format B.
For test [2], the system named is HT29 cells. As to the kind of experiment: HT29 (MSS) 7 day viability, CellTiter Glo. The test is classed as cell-based. The note with it: Homo sapiens, HT-29, 168 h, 7 days, read-out: HT29 (MSS) Viability 7 Day CTGAbs AC50. In short, it runs like this: (§1)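 HCT116 (50 cells/well) or HT29 (500 cells/well) exposed 7 days at 37° C, 5% CO2, to 10-point 3-fold compound dilutions. Viability measured by CellTiter Glo luminescence, background from cell-free wells; IC50 from four-parameter logistic fit, geometric mean of at least 2 replicates.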

Test [3] deals with HCT116 cells. As to the kind of experiment: HCT116 (MSI) 7 day viability, CellTiter Glo. The test is classed as cell-based. The note with it: Homo sapiens, HCT-116, 168 h, 7 days, read-out: HCT116 (MSI) Viability 7 Day Abs AC50. In short, it runs like this:
as §1

Test [4] deals with T1, Full length WRN protein (aa 2-1432). As to the kind of experiment: WRN ATPase ADP-Glo biochemical assay, Assay Format A (10 μM ATP). The note with it: 0.25 nM WRN, 100 nM C6.18 ssDNA, 30 min preincubation, read-out: ATPase ADPGlo AC50 (uM)- Assay Format A. A digest of the protocol: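 Sf9-expressed FLAG-AVI-TEV-tagged WRN (0.5 nM) preincubated 30 min with compound (11-point 3-fold dilution). Reaction started with 200 nM C6.18 39-mer ssDNA and 20 μM ATP (addition concentrations), run 30 min at room temperature. ADP measured by ADP-Glo luminescence; IC50 from four-parameter fit, geometric mean of ≥2 runs.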

T1 sequence (Q14191 2-1432): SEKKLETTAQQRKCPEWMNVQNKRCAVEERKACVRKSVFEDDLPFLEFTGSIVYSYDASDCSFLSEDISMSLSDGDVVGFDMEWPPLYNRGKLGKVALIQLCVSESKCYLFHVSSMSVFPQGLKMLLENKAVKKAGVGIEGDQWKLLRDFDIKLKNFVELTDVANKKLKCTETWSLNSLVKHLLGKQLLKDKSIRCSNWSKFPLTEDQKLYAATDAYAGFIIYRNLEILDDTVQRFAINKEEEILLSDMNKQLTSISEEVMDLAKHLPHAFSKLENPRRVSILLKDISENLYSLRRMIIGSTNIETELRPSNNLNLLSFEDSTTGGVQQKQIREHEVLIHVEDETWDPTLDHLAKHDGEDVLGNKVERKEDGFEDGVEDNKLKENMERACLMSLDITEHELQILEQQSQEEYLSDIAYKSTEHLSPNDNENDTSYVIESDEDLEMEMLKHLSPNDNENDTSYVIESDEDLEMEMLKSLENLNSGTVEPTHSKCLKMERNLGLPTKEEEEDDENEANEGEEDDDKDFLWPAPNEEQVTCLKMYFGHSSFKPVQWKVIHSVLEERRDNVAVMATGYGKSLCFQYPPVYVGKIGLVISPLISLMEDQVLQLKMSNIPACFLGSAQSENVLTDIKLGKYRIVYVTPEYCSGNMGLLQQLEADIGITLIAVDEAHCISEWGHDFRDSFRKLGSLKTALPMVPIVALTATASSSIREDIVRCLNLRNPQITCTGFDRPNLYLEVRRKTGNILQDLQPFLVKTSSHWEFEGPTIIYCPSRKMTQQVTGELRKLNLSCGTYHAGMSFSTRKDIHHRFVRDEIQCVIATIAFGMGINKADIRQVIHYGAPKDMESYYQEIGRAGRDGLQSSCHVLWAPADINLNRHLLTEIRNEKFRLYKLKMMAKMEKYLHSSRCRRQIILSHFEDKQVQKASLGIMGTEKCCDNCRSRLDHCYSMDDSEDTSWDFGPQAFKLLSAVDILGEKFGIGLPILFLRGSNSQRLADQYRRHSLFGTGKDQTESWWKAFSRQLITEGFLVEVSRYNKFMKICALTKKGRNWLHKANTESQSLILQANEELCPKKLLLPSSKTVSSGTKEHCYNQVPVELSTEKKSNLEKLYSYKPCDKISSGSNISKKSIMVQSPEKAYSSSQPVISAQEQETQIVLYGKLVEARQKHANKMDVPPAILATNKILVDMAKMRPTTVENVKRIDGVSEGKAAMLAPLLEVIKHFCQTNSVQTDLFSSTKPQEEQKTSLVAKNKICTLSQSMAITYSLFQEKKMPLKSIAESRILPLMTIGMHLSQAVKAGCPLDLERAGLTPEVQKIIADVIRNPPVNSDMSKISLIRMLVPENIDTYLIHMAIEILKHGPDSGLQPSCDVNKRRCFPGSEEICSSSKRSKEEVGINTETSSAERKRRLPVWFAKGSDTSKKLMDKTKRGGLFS

For `C=CC(=O)N1CCc2nn(-c3ccc(C45CC(C4)C5)c(F)c3)c3c2C(C1)N(C(=O)c1ccc(Br)c2[nH]cnc12)CC3` (stereo not shown) [Compound 84, 1-(2-(4-(bicyclo[1.1.1]pentan-1-yl)-3-fluorophenyl)-5-(7-bromo-1H-benzo[d]imidazole-4-carbonyl)-2,3,4,5,5a,6,8,9-octahydro-7H-1,2,5,7-tetraazabenzo[cd]azulen-7-yl)prop-2-en-1-one], the AC50 in test [1] is 0.015 to 0.055 µM; in test [2] it was above 3000 nM; in test [3], 1 to 100 nM; in test [4], 0.0015 to 0.005 µM.

For the compound `C=CC(=O)N1CCc2nc(-c3ccc(C4CCC4)cc3)n3c2C(C1)N(C(=O)c1cnc(C(F)(F)F)c(O)c1)CC3` (stereo not shown) [Compound 86, 1-(2-(4-cyclobutylphenyl)-5-(5-hydroxy-6-(trifluoromethyl)nicotinoyl)-4,5,5a,6,8,9-hexahydro-1,2a,5,7-tetraazabenzo[cd]azulen-7(3H)-yl)prop-2-en-1-one], the half-maximal activity concentration (AC50) in test [1] was 0.015 to 0.055 µM; in test [2] it was above 3000 nM; in test [3] it was 250 to 500 nM; in test [4] it was below 0.0015 µM.

Regarding `C=CC(=O)N1CCc2nn(-c3ccc(C4CCC4)cc3O)c3c2C(C1)N(C(=O)c1ccc(Br)c2[nH]ncc12)CC3` (stereo not shown) [Compound 87, 1-(5-(7-bromo-1H-indazole-4-carbonyl)-2-(4-cyclobutyl-2-hydroxyphenyl)-2,3,4,5,5a,6,8,9-octahydro-7H-1,2,5,7-tetraazabenzo[cd]azulen-7-yl)prop-2-en-1-one], the AC50 in test [1] is 0.0015 to 0.005 µM; in test [2], above 3000 nM; in test [3] it was 1 to 100 nM; in test [4], below 0.0015 µM.

`C=CC(=O)N1CCc2nn(-c3ccc(C4CCC4)cc3O)c3c2C(C1)N(C(=O)c1cnc(C(F)(F)F)c(SC)c1)CC3` (stereo not shown) [Compound 89, 1-(2-(4-cyclobutyl-2-hydroxyphenyl)-5-(5-(methylthio)-6-(trifluoromethyl)nicotinoyl)-2,3,4,5,5a,6,8,9-octahydro-7H-1,2,5,7-tetraazabenzo[cd]azulen-7-yl)prop-2-en-1-one]: the AC50 was 0.015 to 0.055 µM in test [1], above 3000 nM in test [2], 1 to 100 nM in test [3] and below 0.0015 µM in test [4].

Regarding `C=CC(=O)N1CCc2nn(-c3ccc(C4CCC4)cc3O)c3c2C(C1)N(C(=O)c1ccc(Br)c2nc(C(F)F)[nH]c12)CC3` (stereo not shown) [Compound 90, 1-(5-(4-bromo-2-(difluoromethyl)-1H-benzo[d]imidazole-7-carbonyl)-2-(4-cyclobutyl-2-hydroxyphenyl)-2,3,4,5,5a,6,8,9-octahydro-7H-1,2,5,7-tetraazabenzo[cd]azulen-7-yl)prop-2-en-1-one], the AC50 in test [1] was 0.005 to 0.015 µM; in test [2], above 3000 nM; in test [3] it was 1 to 100 nM; in test [4], below 0.0015 µM.

As for `C=CC(=O)N1CCc2nn(-c3ccc(C4CCC4)c(O)c3)c3c2C(C1)N(C(=O)c1cnc(C(F)(F)F)c(O)c1)CC3` (stereo not shown) [Compound 91, 1-(2-(4-cyclobutyl-3-hydroxyphenyl)-5-(5-hydroxy-6-(trifluoromethyl)nicotinoyl)-2,3,4,5,5a,6,8,9-octahydro-7H-1,2,5,7-tetraazabenzo[cd]azulen-7-yl)prop-2-en-1-one], the AC50 was 0.005 to 0.015 µM in test [1], above 3000 nM in test [2], 250 to 500 nM in test [3] and below 0.0015 µM in test [4].

Take `C=CC(=O)N1CCc2nn(-c3ccc(C45CC(C4)C5)cc3O)c3c2C(C1)N(C(=O)c1cnc(C(F)(F)F)c(O)c1)CC3` (stereo not shown) [Compound 92, 1-(2-(4-(bicyclo[1.1.1]pentan-1-yl)-2-hydroxyphenyl)-5-(5-hydroxy-6-(trifluoromethyl)nicotinoyl)-2,3,4,5,5a,6,8,9-octahydro-7H-1,2,5,7-tetraazabenzo[cd]azulen-7-yl)prop-2-en-1-one]: the AC50 was 0.015 to 0.055 µM in test [1], above 3000 nM in test [2], 1 to 100 nM in test [3] and below 0.0015 µM in test [4].

Turning to `C=CC(=O)N1CCc2nn(-c3ccc(C4CCC4)cc3O)c3c2C(C1)N(C(=O)c1ccc(OC(F)(F)F)nc1)CC3` (stereo not shown) [Compound 93, 1-(2-(4-cyclobutyl-2-hydroxyphenyl)-5-(6-(trifluoromethoxy)nicotinoyl)-2,3,4,5,5a,6,8,9-octahydro-7H-1,2,5,7-tetraazabenzo[cd]azulen-7-yl)prop-2-en-1-one], the AC50 in test [1] was 0.005 to 0.015 µM; in test [2], above 3000 nM; in test [3], 1 to 100 nM; in test [4] it was below 0.0015 µM.

Turning to `C=CC(=O)N1CCc2nn(-c3ccc(C4CCC4)cc3O)c3c2C(C1)N(C(=O)c1ncc(Br)c2[nH]cnc12)CC3` (stereo not shown) [Compound 95, 1-(5-(7-bromo-1H-imidazo[4,5-c]pyridine-4-carbonyl)-2-(4-cyclobutyl-2-hydroxyphenyl)-2,3,4,5,5a,6,8,9-octahydro-7H-1,2,5,7-tetraazabenzo[cd]azulen-7-yl)prop-2-en-1-one], the AC50 in test [1] was 0.0015 to 0.005 µM; in test [2], above 3000 nM; in test [3], 1 to 100 nM; in test [4], below 0.0015 µM.

With `C=CC(=O)N1CCc2nn(-c3ccc(C4CCC4)cc3O)c3c2C(C1)N(C(=O)c1ccc(C(F)(F)F)nc1)CC3` (stereo not shown) [Compound 96, 1-(2-(4-cyclobutyl-2-hydroxyphenyl)-5-(6-(trifluoromethyl)nicotinoyl)-2,3,4,5,5a,6,8,9-octahydro-7H-1,2,5,7-tetraazabenzo[cd]azulen-7-yl)prop-2-en-1-one], the AC50 in test [1] was 0.005 to 0.015 µM; in test [2], above 3000 nM; in test [3], 1 to 100 nM; in test [4] it was below 0.0015 µM.

In the case of `C=CC(=O)N1CCc2nn(-c3ccc(C4CCC4)cc3O)c3c2C(C1)N(C(=O)c1ccc(C(F)(F)F)c2[nH]ncc12)CC3` (stereo not shown) [Compound 97, 1-(2-(4-cyclobutyl-2-hydroxyphenyl)-5-(7-(trifluoromethyl)-1H-indazole-4-carbonyl)-2,3,4,5,5a,6,8,9-octahydro-7H-1,2,5,7-tetraazabenzo[cd]azulen-7-yl)prop-2-en-1-one], the AC50 was 0.005 to 0.015 µM in test [1], above 3000 nM in test [2], 1 to 100 nM in test [3] and below 0.0015 µM in test [4].

For the compound `C=CC(=O)N1CCc2nn(-c3ccc(C4CC4)c(F)c3O)c3c2C(C1)N(C(=O)c1cnc(C(F)(F)F)c(O)c1)CC3` (stereo not shown) [Compound 100, 1-(2-(4-cyclopropyl-3-fluoro-2-hydroxyphenyl)-5-(5-hydroxy-6-(trifluoromethyl)nicotinoyl)-2,3,4,5,5a,6,8,9-octahydro-7H-1,2,5,7-tetraazabenzo[cd]azulen-7-yl)prop-2-en-1-one], the AC50 in test [1] is 0.015 to 0.055 µM; in test [2] it was above 3000 nM; in test [3], 100 to 250 nM; in test [4], 0.0015 to 0.005 µM.

Turning to `C=CC(=O)N1CCc2nn(-c3ccc(C45CC(C4)C5)c(F)c3O)c3c2C(C1)N(C(=O)c1cnc(C(F)(F)F)c(O)c1)CC3` (stereo not shown) [Compound 101, 1-(2-(4-(bicyclo[1.1.1]pentan-1-yl)-3-fluoro-2-hydroxyphenyl)-5-(5-hydroxy-6-(trifluoromethyl)nicotinoyl)-2,3,4,5,5a,6,8,9-octahydro-7H-1,2,5,7-tetraazabenzo[cd]azulen-7-yl)prop-2-en-1-one], the AC50 in test [1] is 0.015 to 0.055 µM; in test [2] it was above 3000 nM; in test [3] it was 100 to 250 nM; in test [4], 0.0015 to 0.005 µM.

`C=CC(=O)N1CCc2nn(-c3ccc(C(C)C)cc3)c3c2C(C1)N(C(=O)c1ccc(Br)c(C(C)(C)O)c1)CC3` (stereo not shown) [Compound 102, 1-(5-(4-bromo-3-(2-hydroxypropan-2-yl)benzoyl)-2-(4-isopropylphenyl)-2,3,4,5,5a,6,8,9-octahydro-7H-1,2,5,7-tetraazabenzo[cd]azulen-7-yl)prop-2-en-1-one]: the AC50 in test [1] was above 0.055 µM; in test [2], above 3000 nM; in test [3], 500 to 1000 nM; in test [4], 0.005 to 0.015 µM.

With `C=CC(=O)N1CCOc2nn(-c3ccc(C4CC4)cc3C)c3c2C(C1)N(C(=O)c1ccc(Br)c2[nH]cnc12)CC3` (stereo not shown) [Compound 103, 1-(5-(7-bromo-1H-benzo[d]imidazole-4-carbonyl)-2-(4-cyclopropyl-2-methylphenyl)-2,3,4,5,5a,6,8,9-octahydro-7H-10-oxa-1,2,5,7-tetraazacycloocta[cd]inden-7-yl)prop-2-en-1-one], the AC50 in test [1] was 0.015 to 0.055 µM; in test [2] it was above 3000 nM; in test [3] it was 250 to 500 nM; in test [4], below 0.0015 µM.

Consider `C=CC(=O)N1CCc2nn(-c3ccc(C(C)C)cc3)c3c2C(C1)N(C(=O)c1ccc(Br)c(NCC(F)(F)F)c1)CC3` (stereo not shown) [Compound 104, 1-(5-(4-bromo-3-((2,2,2-trifluoroethyl)amino)benzoyl)-2-(4-isopropylphenyl)-2,3,4,5,5a,6,8,9-octahydro-7H-1,2,5,7-tetraazabenzo[cd]azulen-7-yl)prop-2-en-1-one], for which the AC50 in test [1] was above 0.055 µM; in test [2] it was above 3000 nM; in test [3], 1 to 100 nM; in test [4], 0.005 to 0.015 µM.
